B1: rMaspin(i): Purified recombinant maspin produced in baculovirus-infected Spodoptera frugiperda Sf9 insect cells (protein, UniProt P36952 1-375, looked up)
Serpin B5: MDALQLANSAFAVDLFKQLCEKEPLGNVLFSPICLSTSLSLAQVGAKGDTANEIGQVLHFENVKDVPFGFQTVTSDVNKLSSFYSLKLIKRLYVDKSLNLSTEFISSTKRPYAKELETVDFKDKLEETKGQINNSIKDLTDGHFENILADNSVNDQTKILVVNAAYFVGKWMKKFSESETKECPFRVNKTDTKPVQMMNMEATFCMGNIDSINCKIIELPFQNKHLSMFILLPKDVEDESTGLEKIEKQLNSESLSQWTNPSTMANAKVKLSIPKFKVEKMIDPKACLENLGLKHIFSEDTSDFSGMSETKGVALSNVIHKVCLEITEDGGDSIEVPGARILQHKDELNADHPFIYIIRHNKTRNIIFFGKFCSP
modifications: recombinant, Sf9 baculovirus-expressed
notes: Purified recombinant maspin produced in baculovirus-infected Spodoptera frugiperda Sf9 insect cells

Assays:
[1] = tested on: estrogen receptor positive cell lines; assay: cells
Description: (§1) The relationship between diet and cancer is an active area of investigation. […] Fruits and vegetables are known to be good sources of dietary boron. To explore a possible cellular mechanism for the effect of boron on prostate cancer 1 mM boric acid was added to several cancer cell lines; three human prostate, and for comparison, five human breast cell lines.

DU-145 = details: 1 mM boric acid
Description: as §1

DU-145 cell line = details: 1 mM boron
Description: as §1

[2] = tested on: estrogen receptor negative human breast cancer cell lines; details: 1 mM boric acid; two cell lines; MEM supplemented with 10% FBS and 25 mM HEPES
Description: as §1

[3] = tested on: androgen receptor positive and receptor negative human prostate cancer cell lines; details: 1 mM boric acid; RPMI1640 media
Description: as §1

[4] = tested on: a breast cancer cell line; details: 1 mM boron
Description: as §1

[5] = tested on: DU-145 androgen receptor negative human prostate cell line
Description: as §1

[6] = target: T1, DU145 cell surface-bound uPA (Homo sapiens, UniProt P00749); details: DU145 cells; read-out: Ki value in cell surface-mediated plasminogen activation; cited from earlier work
T1 construct: endogenous in cells; host or cells: DU145 prostate carcinoma cells

| Molecule | growth inhibition ([1]; 1 mM boric acid, two estrogen receptor positive cell lines, MEM media or RPMI1640, supplemented) | inhibition at 1000 µM ([1]; Homo sapiens, 216 h, read-out: inhibition in growth) [%] | apoptosis by flow cytometry ([1]; third estrogen receptor positive breast cancer cell line, preliminary results) | cell cycle block or apoptosis (DU-145) | apoptosis or necrosis (DU-145 cell line) | growth inhibition [2] | growth response [3] | apoptosis or necrosis [4] | growth ([5]; 1 mM boric acid, supplemented RPMI media) | reversibility of growth inhibition ([5]; boric acid removed on Day 3, cell growth resumed by Day 6) | Ki [6] [nM] |
| --- | --- | --- | --- | --- | --- | --- | --- | --- | --- | --- | --- |
| OB(O)O [boric acid] | failed to exhibit growth inhibition | 20 | may be inducing apoptosis | does not block the cell cycle or induce apoptosis | does not induce apoptosis or necrosis | did not show growth inhibition | failed to show a response | does not induce apoptosis or necrosis | completely arrested | reversible |  |
| B1 |  |  |  |  |  |  |  |  |  |  | 20 |

Reference: patent publication US8426387B2, “Treatments for cancer” (priority 2006, dated 2013)
